The record followed here is ChEMBL document CHEMBL1150679, “Genipatriol, a new cycloartane triterpene from Genipa spruceana” (J Nat Prod, 2003).

The assay relates to Nakaseomyces glabratus. Description: Antimicrobial activity against Candida glabrata assessed as reversal of azole resistance after 24 to 48 hrs. It counts as functional, organism-based.

Molecules are shown by their SMILES. Active and inactive are the calls of the source. No cut-off for these calls is given here.

On to `C/C(=C/CC[C@@H](C)[C@H]1CC[C@@]2(C)[C@@H]3CC[C@H]4C(C)(C)[C@@H](O)[C@H](O)C[C@@]45C[C@@]35CC[C@]12C)CO`, for which the outcome was inactive.
Consider `C[C@H]1[C@H](C)CC[C@]2(C(=O)O)CC[C@]3(C)C(=CC[C@@H]4[C@@]5(C)CC[C@H](O)C(C)(C)[C@@H]5CC[C@]43C)[C@H]12`, for which the result was inactive.
